These results are taken from ChEMBL document CHEMBL1137889, “Synthesis and antienteroviral activity of a series of novel, oxime ether-containing pyridyl imidazolidinones” (Bioorg Med Chem Lett, 2004).

The subject of assay [1] is Coxsackievirus. Kind of assay: inhibition concentration required against coxsackievirus B3 was determined by plaque reduction assay. In kind it is functional, organism-based. (In general: Plaque reduction counts the foci of infection that form in a cell layer.)
Assay [2] concerns Echovirus. Kind of assay: inhibition concentration required against echovirus 9 was determined by plaque reduction assay. In kind it is functional, organism-based.
Assay [3] relates to Enterovirus A71. The assay is described as follows: inhibition concentration required against human enterovirus 71 (2086) genotype C was determined by plaque reduction assay. In kind it is functional, organism-based. Particulars: Enterovirus A.
The test system of assay [4] is Coxsackievirus. The assay is described as follows: inhibition concentration required against coxsackievirus A9 was determined by plaque reduction assay. The class given is functional, organism-based.
The subject of assay [5] is Coxsackievirus. The assay is described as follows: inhibition concentration required against coxsackievirus A16 was determined by plaque reduction assay. In kind it is functional, organism-based.
Assay [6] relates to Coxsackievirus. The assay is described as follows: inhibition concentration required against coxsackievirus A10 was determined by plaque reduction assay. The class given is functional, organism-based.
Assay [7] concerns Coxsackievirus. Kind of assay: inhibition concentration required against coxsackievirus B5 was determined by plaque reduction assay. The class given is functional, organism-based.
For another assay, the system named is Enterovirus D68. Kind of assay: inhibition concentration required against human enterovirus 68 was determined by plaque reduction assay. The note with it: Enterovirus D.
Assay [8] relates to Coxsackievirus. The assay is described as follows: inhibition concentration required against coxsackievirus B4 was determined by plaque reduction assay. The class given is functional, organism-based.
Assay [9] concerns Enterovirus A71. Kind of assay: inhibition concentration required against human enterovirus 71 strain 4643 was determined by plaque reduction assay. The class given is functional, organism-based. Particulars: Enterovirus A.
For assay [10], the system named is Enterovirus A71. The assay is described as follows: inhibition concentration required against human enterovirus 71 (2231) genotype C was determined by plaque reduction assay. The class given is functional, organism-based. Particulars: Enterovirus A.
Assay [11] deals with Coxsackievirus. The assay is described as follows: inhibition concentration required against coxsackievirus B6 was determined by plaque reduction assay. In kind it is functional, organism-based.
Assay [12] relates to Coxsackievirus. Kind of assay: inhibition concentration required against coxsackievirus B2 was determined by plaque reduction assay. The class given is functional, organism-based.
The test system of assay [13] is Echovirus. The assay is described as follows: inhibition concentration required against echovirus 29 was determined by plaque reduction assay. In kind it is functional, organism-based.
Assay [14] relates to Enterovirus A71. Kind of assay: inhibition concentration required against human enterovirus 71 (BrCr) genotype A was determined by plaque reduction assay. In kind it is functional, organism-based.
The test system of another assay is Rhabdomyosarcoma cell. Kind of assay: Concentration required for 50% cytotoxicity against human rhabdomyosarcoma cell lines. The class given is functional.
The subject of assay [15] is Enterovirus A71. Kind of assay: inhibition concentration required against human enterovirus 71 (1743) genotype B was determined by plaque reduction assay. In kind it is functional, organism-based. Particulars: Enterovirus A.
Assay [16] relates to Coxsackievirus. The assay is described as follows: inhibition concentration required against coxsackievirus B1 was determined by plaque reduction assay. In kind it is functional, organism-based.
In assay [17] the test system is Coxsackievirus. Kind of assay: inhibition concentration required against coxsackievirus A24 was determined by plaque reduction assay. The class given is functional, organism-based.

With `O=C1N(CCCCCOc2ccc(-c3ccc(Cl)cc3)cc2)CCN1c1ccncc1`, the IC50 – broadly, the concentration that gives 50% inhibition – was over 25000 nM in the assay on Coxsackievirus [1]; 300 nM with Echovirus [2]; 70 nM with Enterovirus A71 [3]; 40 nM with Coxsackievirus [4]; over 25000 nM in the assay on Coxsackievirus [5]; 8610 nM in the assay with Coxsackievirus [6]. For the same compound, the IC50 in the assay with Coxsackievirus [7] is 4180 nM; in the assay on Enterovirus D68 it was over 25000 nM; in the assay with Coxsackievirus [8], 3140 nM; in the assay on Enterovirus A71 [9], 30 nM; with Enterovirus A71 [10] it was 80 nM; in the assay with Coxsackievirus [11], over 25000 nM. Moreover, the IC50 in the assay with Coxsackievirus [12] is over 25000 nM; in the assay on Echovirus [13], 30 nM; in the assay on Enterovirus A71 [14], 50 nM; with Enterovirus A71 [15], 90 nM; in the assay with Coxsackievirus [16], over 25000 nM; with Coxsackievirus [17], 140 nM. Also, the CC50 (usually the concentration giving 50% cytotoxicity) with Rhabdomyosarcoma cell is over 12500 nM.
